The assay deals with isolated guinea pig gallbladder. Description: Functional activity in isolated guinea pig gallbladder preparation. It is filed as cell-based. Particulars: expressed as % CCK-induced maximal response; for activation at 1 µM / activation at 30 µM: Cavia porcellus; for activation at 1 µM: read-out: %Contraction (1 × 10^-6 M); for activation at 30 µM: read-out: % Contraction (3 × 10^-5 M).

The structures appear in SMILES notation.

For the compound `COc1ccc(N(C(=O)CN2C(=O)C(C)(Cc3n[nH]c4ccccc34)C(=O)N(c3cccnc3)c3ccccc32)C(C)C)cc1` (single isomer, unassigned) [Example 75, 2-[3-(1H-indazol-3-ylmethyl)-3-methyl-2,4-dioxo-5-pyridin-3-yl-2,3,4,5-tetrahydro-benzo[b][1,4]diazepin-1-yl]-N-isopropyl-N-(4-methoxy-phenyl)-acetamide], for the setting “1 × 10^-6 M test compound”, the activation at 1 µM amounted to 102%. The activation at 30 µM (3 × 10^-5 M test compound) worked out at 82%.

Regarding `COc1ccc(N(C(=O)CN2C(=O)C(C)(Cc3ccc4ccccc4c3)C(=O)N(c3ccccc3)c3ccccc32)C(C)C)cc1` (centres unmarked) [Example 38, N-Isopropyl-N-(4-methoxy-phenyl)-2-(3-methyl-3-naphthalen-2-ylmethyl-2,4-dioxo-5-phenyl-2,3,4,5-tetrahydro-benzo[b][1,4]diazepin-1-yl) acetamide], for the setting “1 × 10^-6 M test compound”, the activation at 1 µM was 30%.

Consider `CC(C)N(C(=O)CN1C(=O)C(C)(CC(=O)N(C)c2ccccc2)C(=O)N(c2ccccc2)c2ccccc21)c1ccccc1` (centres unmarked) [Example 5, 2-(2,4-Dioxo-5-phenyl-3-methyl-N-methyl-3-phenylcarbamoylmethyl-2,3,4,5-tetrahydro-benzo[b][1,4]diazepin-1-yl)-N-isopropyl-N-phenyl acetamide], for which the activation at 1 µM (1 × 10^-6 M test compound) is 9%.

With `COc1ccc(N(C(=O)CN2C(=O)C(C)(Cc3cn(C)c4ccccc34)C(=O)N(c3ccccc3)c3ccccc32)C(C)C)cc1` (centres unmarked) [Example 24, 2-[3-(N-methyl-indol-3-ylmethyl)-3-methyl-2,4-dioxo-5-phenyl-2,3,4,5-tetrahydro-benzo[b][1,4]diazepin-1-yl]-N-isopropyl-N-(4-methoxy-phenyl) acetamide], under “3 × 10^-5 M test compound”, the activation at 30 µM was determined as 34%.

For the compound `COc1ccc(N(C(=O)CN2C(=O)C(Cc3n[nH]c4ccccc34)C(=O)N(c3cccnc3)c3ccccc32)C(C)C)cc1` (centres unmarked) [Example 71, 2-[3-(1H-indazol-3-ylmethyl)-2,4-dioxo-5-pyridin-3-yl-2,3,4,5-tetrahydrobenzo[b][1,4]diazepin-1-yl]-N-isopropyl-N-(4-methoxy-phenyl) acetamide], the activation at 1 µM (1 × 10^-6 M test compound) was found to be 106%. Besides, the activation at 30 µM (3 × 10^-5 M test compound) is 92%.

Take `CC(C)N(C(=O)CN1C(=O)C(Cc2n[nH]c3ccccc23)C(=O)N(c2ccccc2)c2ccccc21)c1ccc2c(c1)OCO2` (centres unmarked) [Example 77, 2-[3-(1H-Indazol-3-ylmethyl)-2,4-dioxo-5-phenyl-2,3,4,5-tetrahydrobenzo[b][1,4]diazepin-1-yl]-N-isopropyl-N-(3,4-methylenedioxy-phenyl) acetamide]: the activation at 1 µM (1 × 10^-6 M test compound) came out at 78%. For the same compound, the activation at 30 µM (3 × 10^-5 M test compound) is 120%.

On to `COc1ccc(N(C(=O)CN2C(=O)C(Cc3nn(C)c4ccccc34)C(=O)N(c3ccccc3)c3ccccc32)C(C)C)cc1` (centres unmarked) [Example 44, N-Isopropyl-N-(4-methoxy-phenyl)-2-[3-(1-methyl-1H-indazol-3-ylmethyl)-2,4-dioxo-5-phenyl-2,3,4,5-tetrahydro-benzo[b][1,4]diazepin-1-yl]acetamide], for which, for the setting “1 × 10^-6 M test compound”, the activation at 1 µM was 57%. Also, the activation at 30 µM (3 × 10^-5 M test compound) stood at 83%.

Take `CC(C)N(C(=O)CN1C(=O)C(Cc2n[nH]c3ccccc23)C(=O)N(c2ccccc2)c2ccccc21)c1ccc(F)cc1` (centres unmarked) [Example 57, N-(4-Fluoro-phenyl)-2-[3-(1H-indazol-3-ylmethyl)-2,4-dioxo-5-phenyl-2,3,4,5-tetrahydro-benzo[b][1,4]diazepin-1-yl]-N-isopropyl-acetamide]: where the note is “1 × 10^-6 M test compound”, the activation at 1 µM stood at 99%. Besides, under “3 × 10^-5 M test compound”, the activation at 30 µM amounted to 134%.

Turning to `COc1ccc(N(C(=O)CN2C(=O)C(C)(CC(=O)Nc3cccc(F)c3)C(=O)N(c3ccccc3)c3ccccc32)C(C)C)cc1` (centres unmarked) [Example 25, N-Isopropyl-N-(4-methoxy-phenyl)-2-[3-(3-fluoro-phenylcarbamoylmethyl)-3-methyl-2,4-dioxo-5-phenyl-2,3,4,5-tetrahydro-benzo[b][1,4]diazepin-1-yl]acetamide], the activation at 1 µM (1 × 10^-6 M test compound) was found to be 88%.

Consider `CC(C)N(C(=O)CN1C(=O)C(C)(Cc2cc3ccccc3[nH]2)C(=O)N(c2ccccc2)c2ccccc21)c1ccccc1` (centres unmarked) [Example 18, 2-[3-(1H-indol-2-ylmethyl)-3-methyl-2,4-dioxo-5-phenyl-2,3,4,5-tetrahydro-benzo[b][1,4]diazepin-1-yl]-N-isopropyl-N-phenyl acetamide], for which, under “3 × 10^-5 M test compound”, the activation at 30 µM was determined as 3%.

With `COc1ccc(N(C(=O)CN2C(=O)C(C)(Cc3coc4ccccc34)C(=O)N(c3ccccc3)c3ccccc32)C(C)C)cc1` (centres unmarked) [Example 33], the activation at 1 µM (1 × 10^-6 M test compound) stood at 53%.

As to `COc1cccc(N(C(=O)CN2C(=O)C(Cc3n[nH]c4ccccc34)C(=O)N(c3ccccc3)c3ccccc32)C(C)C)c1` (centres unmarked) [Example 79, 2-[3-(1H-Indazol-3-ylmethyl)-2,4-dioxo-5-phenyl-2,3,4,5-tetrahydrobenzo[b][1,4]diazepin-1-yl]-N-isopropyl-N-(3-methoxy-phenyl) acetamide], the activation at 1 µM (1 × 10^-6 M test compound) amounted to 92%. For the same compound, the activation at 30 µM (3 × 10^-5 M test compound) came to 93%.

Turning to `CC(C)N(C(=O)CN1C(=O)C(C)(CCCc2ccccc2)C(=O)N(c2ccccc2)c2ccccc21)c1ccccc1` (centres unmarked) [Example 12, N-Isopropyl-2-[3-methyl-2,4-dioxo-5-phenyl-3-(3-phenyl-propyl)-2,3,4,5-tetrahydro-benzo[b][1,4]diazepin-1-yl]-N-phenyl acetamide], the activation at 1 µM (1 × 10^-6 M test compound) was found to be 19%.

Regarding `COc1ccc(N(C(=O)CN2C(=O)C(Cc3n[nH]c4ncccc34)C(=O)N(c3ccccc3)c3ccccc32)C(C)C)cc1` (centres unmarked) [Example 50, 2-[2,4-Dioxo-5-phenyl-3-(1H-pyrazolo[3,4-b]pyridin-3-ylmethyl)-2,3,4,5-tetrahydro-benzo[b][1,4]diazepin-1-yl]-N-isopropyl-N-(4-methoxy-phenyl)-acetamide], the activation at 1 µM (1 × 10^-6 M test compound) was found to be 83%. Also, the activation at 30 µM (3 × 10^-5 M test compound) was found to be 94%.

As for `COc1ccc(N(C(=O)CN2C(=O)C(C)(Cc3nn(C)c4ccccc34)C(=O)N(c3ccccc3)c3ccccc32)C(C)C)cc1` (centres unmarked) [Example 45, N-Isopropyl-N-(4-methoxy-phenyl)-2-[3-(1-methyl-1H-indazol-3-ylmethyl)-3-methyl-2,4-dioxo-5-phenyl-2,3,4,5-tetrahydro-benzo[b][1,4]diazepin-1-yl]acetamide], where the note is “1 × 10^-6 M test compound”, the activation at 1 µM worked out at 57%.

With `COc1ccc(N(C(=O)CN2C(=O)C(Cc3n[nH]c4ccccc34)C(=O)N(c3cccnc3)c3ccccc32)C(C)C)cc1` (single isomer, unassigned; (-)) [Example 73, (-)-2-[3-(1H-Indazol-3-ylmethyl)-2,4-dioxo-5-pyridin-3-yl-2,3,4,5-tetrahydrobenzo[b][1,4]diazepin-1-yl]-N-isopropyl-N-(4-methoxyphenyl) acetamide], under “1 × 10^-6 M test compound”, the “%Contraction (1 × 10^-6 M)” value turned out to be 58%. The “% Contraction (3 × 10^-5 M)” value (3 × 10^-5 M test compound) amounted to 64%.

`COc1ccc(N(C(=O)CN2C(=O)C(Cc3n[nH]c4c3CCCC4)C(=O)N(c3ccccc3)c3ccccc32)C(C)C)cc1` (centres unmarked) [Example 51, 2-[2,4-Dioxo-5-phenyl-3-(4,5,6,7-tetrahydro-1H-indazol-3-ylmethyl)-2,3,4,5-tetrahydro-benzo[b][1,4]diazepin-1-yl]-N-isopropyl-N-(4-methoxy-phenyl)-acetamide]: the activation at 1 µM (1 × 10^-6 M test compound) stood at 82%. For the same compound, where the note is “3 × 10^-5 M test compound”, the activation at 30 µM was 83%.

For the origin of these results see patent US5859007A, “CCK or gastrin modulating benzo [b][1,4] diazepines derivatives” (Glaxo Wellcome Inc., priority 1994, dated 1999).
